Test results published in patent EP2397471A1, “Benzimidazole compounds and their use” (China Medical University, priority 2010, dated 2011).

Legend:
[1] = test system: PC-3 cells; assay: In situ tubulin assay (immunofluorescence microscopy); type: cell-based; conditions: 18 to 24 h
Experimental: The organization and formation of microtubule were detected by immunofluorescence microscopic examination in PC-3 cells.
PC-3 cells were seeded in 8-well chamber slides and incubated with a vehicle (0.1% DMSO, control), Compound 55 (10 µM), taxol (0.1 µM), or vincristine (0.1 µM) for 18 to 24 h. Then, the cells were fixed with 100 % methanol at -20°C for 5 min and incubated in 1 % bovine serum albumin (BSA) containing 0.1 % Triton X-100 at 37°C for 30 min. Cells were then washed twice with PBS for 5min and stained with primary antibody specific to β-tubulin at 37°C for 1 h. Afterwards, FITC-labeled secondary antibodies were used (staining performed at 37°C for 40 min, green fluorescence) and the protein was detected using a confocal laser microscopic system (Leica TCS SP2). The nuclei were visible by DAPI staining (1 mg/mL DAPI, blue fluorescence).

[2] = test system: Bcl-2 family member proteins, caspases; assay: Western blot analysis of Bcl-2 family member proteins and caspases (apoptosis); type: cell-based; conditions: PC-3 cells; 10 µM; 0 hr to 36 hrs
Experimental: Effect of benzimidazole compounds on inducing apoptosis was evaluated by testing their effect on the expression/activation of Bcl-2 family member proteins, caspases, and c-Jun N-terminal kinase (JNK). Bcl-2 family of proteins is the most important regulators of mitochondria-involved apoptotic cell death. The pro-apoptotic members, Bax, Bak and Bad, are required for the disruption of mitochondria; whereas the anti-apoptotic Bcl-2, Bcl-xL and Mcl-1 can prevent apoptosis by antagonizing the pro-apoptotic members.
PC-3 cells were incubated with a vehicle (0.1% DMSO) or Compound 55 (10 µM) for 0 hr, 6 hrs, 12 hrs, 18 hrs, 24 hrs, and 36 hrs. Then, the cells were harvested and lysed for the detection of protein expression with specific antibodies by western blot analysis. For Western blotting, the proteins (40 µg) in the lysis (including Phospho-Bcl-2, Bcl-2, Phospho-Bcl-xL, Bcl-xL, Mcl-1, Bax, Bak, Bad, GAPDH, cleaved Bad, Caspase-9, cleaved Caspase-9, Caspase-3, cleaved Caspase-3, poly-(ADP-ribose) polymerase (PARP), cleaved PARP, and GAPDH) were separated by electrophoresis in a 10 to 15% polyacrylamide gel, transferred to a nitrocellulose membrane and immuno-reacted with specific antibodies.

[3] = test system: Ras, Raf-1, and MEK; assay: Western blotting of Ras, Raf-1, MEK; type: cell-based; conditions: PC-3 cells; 10 µM; 30-120 min for Ras, 6-24 hrs for Raf-1, MEK
Experimental: (§1) PC-3 cells were incubated with a vehicle (0.1% DMSO) as control or Coumpound 55 (10 µM) for 30 min, 45 min, 60 min, and 120 min for testing Ras; or for 6 hrs, 12 hrs, 18 hrs, and 24 hrs for testing Raf-1, Phospho-MEK, MEK, and GAPDH. After the treatment, cells were washed twice with ice-cold PBS and then lysed with 100 µL lysis buffer (20 mM Tris, pH 7.5, 1 mM MgCl2, 125 mM NaCl, 1% Triton X-100, 1 mM phenylmethylsulphonylfluoride, 10 µg/mL leupeptin, 10 µg/mL aprotinin, 25 mM β-glycerophosphate, 50 mM NaF, and 100 µM sodium orthovanadate). Then, the expressions of the above proteins were detected by Western blotting.

[4] = test system: PC-3 cells; assay: FACScan flow cytometric analysis of cell cycle progression; type: cell-based; conditions: 1 µM, 3 µM, and 10 µM, 0 hr to 48 hrs
Experimental: PC-3 cells were treated with Compound 55 (at different concentrations: 1 µM, 3 µM, and 10 µM) for 0 hr, 6 hrs, 12 hrs, 18 hrs, 24 hrs, 36 hrs, and 48 hrs. After treatment, cells were washed twice with ice-cold PBS, collected by centrifugation and fixed in 70% (v/v) ethanol at 4°C for 30 min. Then, cells were treated with 0.2 ml of a buffer (containing 0.2 M Na2HPO4 and 0.1 M citric acid buffer, pH 7.8) for 30 min, centrifuged, and then incubated in 1 mL propidium iodide (PI) staining buffer (0.1 % Triton X-100, 100 µg/mL RNase A, 80 µg/mL propidium iodide in PBS) at 37°C for 30 min. Cells were detected using a cytofluorometer, and analyzed by FACScan and CellQuest program (Becton Dickinson).

[5] = test system: Tubulin proteins; assay: In vitro tubulin turbidity assay; type: biochemical; conditions: absorbance at 340 nm, 37°C, 60 min
Experimental: Effects of the benzimidazole compounds on tubulin polymerization were detected using CytoDYNAMIX Screen 03 kit (Cytoskeleton, Inc., Denver, CO).
Tubulin proteins (> 99% purity) were suspended in G-PEM buffer containing 80 mM PIPES, 2 mM MgCl2, 0.5 mM […], and 1.0 mM GTP (pH 6.9) and 5% glycerol with or without a test compound. Then, the mixture was transferred to a 96-well plate and the absorbance was measured at 340 nm (37°C) for 60 min (SpectraMAX Plus, Molecular Devices Inc., Sunnyvale, CA).
Level oftubulin polymerization was determined by examining turbidity of the tubulin suspension. Absorbance of the suspension at 340 nm was plotted as a function of time. Accordingly, the velocity and magnitude of tubulin polymerization were determined.

[6] = test system: Cyclin E, Cyclin A, Cyclin B1, Cdk1, Cdk2, p27, MPM2; assay: Western blot analysis of cell-cycle regulators; type: cell-based; conditions: PC-3 cells; 10 µM
Experimental: as §1
The cell-cycle regulators were also examined by Western blot analysis. Proteins in the lysis (40 µg) were separated by electrophoresis in a 10 or 15% polyacrylamide gel, transferred to a nitrocellulose membrane and immuno-reacted with respective antibodies against Cyclin E, Cyclin A, Cyclin B1, Cdk1, Cdk2, p27, MPM2, and GAPDH.

Structure (SMILES)	spindles and nuclei, in situ labeling of tubulin and chromosomes ([1]; 0.1 µM)	Mcl-1 expression [2]	cleavage of caspase-9, caspase-3 and PARP [2]	phosphorylation and degradation of Bcl-2 and Bcl-xL [2]	expression of Ras, Raf-1, and MEK [3]	cell population at G2/M phase [4]	hypodiploid (sub-G1, apoptosis) population of the cell cycle [4]	spindles and nuclei, in situ labeling of tubulin and chromosomes ([1]; 10 µM)	tubulin polymerization [5]	expression of cyclin B1 [6]	expression of cyclin E and cyclin A [6]
CC[C@]1(O)C[C@H]2CN(CCc3c([nH]c4ccccc34)[C@@](C(=O)OC)(c3cc4c(cc3OC)N(C=O)[C@H]3[C@@](O)(C(=O)OC)[C@H](OC(C)=O)[C@]5(CC)C=CCN6CC[C@]43[C@@H]65)C2)C1 [vincristine]	multi-polar spindles and chromosome condensation were observed										
CC(=O)O[C@H]1C(=O)[C@@]2(C)[C@H]([C@H](OC(=O)c3ccccc3)[C@]3(O)C[C@H](OC(=O)[C@H](O)[C@@H](NC(=O)c4ccccc4)c4ccccc4)C(C)=C1C3(C)C)[C@]1(OC(C)=O)CO[C@@H]1C[C@@H]2O [taxol]	multi-polar spindles and multiple nuclei were formed										
COc1cc(Cn2c(-c3ccccc3)nc3cc(N4CCCC4)ccc32)cc(OC)c1OC [Compound 55, 2-phenyl-5-(pyrrolidin-1-yl)-1-(3,4,5-trimethoxybenzyl)-1H benzo[d]imidazole]		decrease of Mcl-1 expression	cleaved to produce catalytically active fragments	induced the phosphorylation and degradation of Bcl-2 and Bcl-xL	upregulated Ras, Raf-1, and MEK	increase of cell population at G2/M phase	subsequent increase of hypodiploid (sub-G1, apoptosis) population	mono-polar	inhibited tubulin polymerization in a dose-dependent manner	upregulated cyclin B1	downregulated cyclin E and cyclin A
